Measured values: patent publication US11547681B2, “N-acylethanolamide derivatives and uses thereof” (ELIEM THERAPEUTICS, INC., priority 2016, dated 2023)

Assay: in vitro
Settings: for Concentration (μM) of analyte PEA, 0 min / Concentration (μM) of analyte PEA, 10 min / Concentration (μM) of analyte PEA, 20 min / Concentration (μM) of analyte PEA, 30 min / Concentration (μM) of analyte PEA, 60 min / % Remaining of Initial (n = 1), 0 min / % Remaining of Initial (n = 1), 10 min / % Remaining of Initial (n = 1), 20 min / % Remaining of Initial (n = 1), 30 min / % Remaining of Initial (n = 1), 60 min: 1 μM; for % Remaining of Initial (n = 1), 0 min: s9, 0 h; for % Remaining of Initial (n = 1), 10 min: s9, 10 min; for % Remaining of Initial (n = 1), 20 min: s9, 20 min; for % Remaining of Initial (n = 1), 30 min: s9, 0.5 h; for % Remaining of Initial (n = 1), 60 min: s9, 1 h; for half-life at 1 μM: s9, Half-life (min)
Protocol: Reaction mixture, minus cofactors, was prepared as described below. Test article was added into the reaction mixture at a final concentration of 1 μM. […] An aliquot of the reaction mixture (without cofactor cocktail) was equilibrated in a shaking water bath at 37° C. for 3 minutes. The reaction was initiated by the addition of cofactor cocktail (see below), and the mixture was then incubated in a shaking water bath at 37° C. Aliquots (100 μL) were withdrawn 0, 10, 20, 30 and 60 minutes. Test article samples were immediately combined with 300 μL of ice-cold acetonitrile containing 1% formic acid. Control samples were immediately combined with 400 μL of ice-cold 50/50 acetonitrile (ACN)/dH2O containing 0.1% formic acid and internal standard to terminate the reaction. Samples were then mixed and centrifuged to precipitate proteins. Calibration standards were prepared in matched matrix. Samples and standards were assayed by LC-MS/MS using electrospray ionization for both the dosed prodrug and the expected drug (PEA). Analytical conditions are outlined in Appendix 8-1. Test article concentration at each time point was compared to the test article concentration at time 0 to determine the percent remaining at each time point. Half-lives were calculated using GraphPad software, fitting to a single-phase exponential decay equation.
Reaction mixture, minus cofactors, was prepared as described below. Test article was added into the reaction mixture at a final concentration of 1 μM. […] An aliquot of the reaction mixture (without cofactor cocktail) was equilibrated in a shaking water bath at 37° C. for 5 minutes. Reaction was initiated by the addition of cofactor cocktail (see below), and mixture was then incubated in a shaking water bath at 37° C. Aliquots (100 μL) were withdrawn at 0, 10, 20, 30, and 60 minutes. Test article samples were immediately combined with 300 μL of ice-cold acetonitrile containing 1% formic acid. Control samples were immediately combined with 400 μL of ice-cold 50/50 acetonitrile (ACN)/dH2O containing 0.1% formic acid and internal standard to terminate the reaction. Samples were then mixed and centrifuged to precipitate proteins. Calibration standards were prepared in matched matrix. Samples and standards were assayed by LC-MS/MS using electrospray ionization for both dosed prodrug and expected drug (PEA). Analytical conditions are outlined in Appendix 10-1. Test article concentration at each time point was compared to test article concentration at time 0 to determine the percent remaining at each time point. Half-lives were calculated using GraphPad software, fitting to a single-phase exponential decay equation.
The reaction mixture, minus cofactors, was prepared as described below. Test article was added into the reaction mixture at a final concentration of 1 μM. […] An aliquot of the reaction mixture (without cofactor cocktail) was equilibrated in a shaking water bath at 37° C. for 3 minutes. Reaction was initiated by the addition of cofactor cocktail (see below), and the mixture was then incubated in a shaking water bath at 37° C. Aliquots (100 μL) were withdrawn at 0, 10, 20, 30, and 60 minutes. Test article samples were immediately combined with 300 μL of ice-cold acetonitrile containing 1% formic acid. Control samples were immediately combined with 400 μL of ice-cold 50/50 acetonitrile (ACN)/dH2O containing 0.1% formic acid and internal standard to terminate the reaction. Samples were then mixed and centrifuged to precipitate proteins. Calibration standards were prepared in matched matrix. Samples and standards were assayed by LC-MS/MS using electrospray ionization for both dosed prodrug and expected drug (PEA). Analytical conditions are outlined in Appendix 13-1. Test article concentration at each time point was compared to the test article concentration at time 0 to determine the percent remaining at each time point.

## CCCCC/C=C\C/C=C\CCCCCCCC(=O)OCCNC(=O)CCCCCCCCCCCCCCC [Compound I-6]
both, human
  Concentration (μM) of analyte PEA, 0 min: 0.014 µM
  Concentration (μM) of analyte PEA, 10 min: 0.037 µM
  Concentration (μM) of analyte PEA, 20 min: 0.022 µM
  Concentration (μM) of analyte PEA, 30 min: 0.022 µM
  Concentration (μM) of analyte PEA, 60 min: 0.016 µM
  % Remaining of Initial (n = 1), 0 min: 100%
  % Remaining of Initial (n = 1), 10 min: 80%
  % Remaining of Initial (n = 1), 20 min: 102%
  % Remaining of Initial (n = 1), 30 min: 95%
  % Remaining of Initial (n = 1), 60 min: 77%
  half-life at 1 μM: > 1 h
male, Beagle, dog
  Concentration (μM) of analyte PEA, 0 min: 0.016 µM
  Concentration (μM) of analyte PEA, 10 min: 0.044 µM
  Concentration (μM) of analyte PEA, 20 min: 0.041 µM
  Concentration (μM) of analyte PEA, 30 min: 0.049 µM
  Concentration (μM) of analyte PEA, 60 min: 0.037 µM
  % Remaining of Initial (n = 1), 0 min: 100%
  % Remaining of Initial (n = 1), 10 min: 101%
  % Remaining of Initial (n = 1), 20 min: 106%
  % Remaining of Initial (n = 1), 30 min: 102%
  % Remaining of Initial (n = 1), 60 min: 110%
  half-life at 1 μM: > 1 h
male, CD-1, mouse
  Concentration (μM) of analyte PEA, 0 min: 0.030 µM
  Concentration (μM) of analyte PEA, 10 min: 0.041 µM
  Concentration (μM) of analyte PEA, 20 min: 0.033 µM
  Concentration (μM) of analyte PEA, 30 min: 0.031 µM
  Concentration (μM) of analyte PEA, 60 min: 0.015 µM
  % Remaining of Initial (n = 1), 0 min: 100%
  % Remaining of Initial (n = 1), 10 min: 87%
  % Remaining of Initial (n = 1), 20 min: 87%
  % Remaining of Initial (n = 1), 30 min: 99%
  % Remaining of Initial (n = 1), 60 min: 75%
  half-life at 1 μM: > 1 h
male, Sprague-Dawley, rat
  Concentration (μM) of analyte PEA, 0 min: 0.020 µM
  Concentration (μM) of analyte PEA, 10 min: 0.035 µM
  Concentration (μM) of analyte PEA, 20 min: 0.021 µM
  Concentration (μM) of analyte PEA, 30 min: 0.021 µM
  Concentration (μM) of analyte PEA, 60 min: 0.013 µM
  % Remaining of Initial (n = 1), 0 min: 100%
  % Remaining of Initial (n = 1), 10 min: 64%
  % Remaining of Initial (n = 1), 20 min: 82%
  % Remaining of Initial (n = 1), 30 min: 93%
  % Remaining of Initial (n = 1), 60 min: 89%
  half-life at 1 μM: > 1 h
